Read-outs that look alike come from different tables or passages of the source.
Biological target: T1, human A2a receptor (Homo sapiens, UniProt P29274)
T1 construct: purchased Perkin-Elmer RBHA2AM400UA; host or cells: HEK293 cells, used as a membrane preparation
Assay: A2a receptor competition binding assay (Scintillation Proximity)
How it was run: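 Ki values were obtained with the Cheng-Prusoff equation from competition curves against 0.5 nM tritiated antagonist, scintillation proximity counting after 1 h room-temperature incubation. Receptor came from HEK293 membranes pretreated with adenosine deaminase; compound final range 3000–0.15 nM, buffer Ca/Mg-free PBS with 10 mM MgCl2.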

[1] = membranes from HEK293 cells expressing human A2a receptor, 0.5 nM tritiated ligand, Cheng-Prusoff, read-out: A2a Ki

T1 sequence (P29274 whole entry): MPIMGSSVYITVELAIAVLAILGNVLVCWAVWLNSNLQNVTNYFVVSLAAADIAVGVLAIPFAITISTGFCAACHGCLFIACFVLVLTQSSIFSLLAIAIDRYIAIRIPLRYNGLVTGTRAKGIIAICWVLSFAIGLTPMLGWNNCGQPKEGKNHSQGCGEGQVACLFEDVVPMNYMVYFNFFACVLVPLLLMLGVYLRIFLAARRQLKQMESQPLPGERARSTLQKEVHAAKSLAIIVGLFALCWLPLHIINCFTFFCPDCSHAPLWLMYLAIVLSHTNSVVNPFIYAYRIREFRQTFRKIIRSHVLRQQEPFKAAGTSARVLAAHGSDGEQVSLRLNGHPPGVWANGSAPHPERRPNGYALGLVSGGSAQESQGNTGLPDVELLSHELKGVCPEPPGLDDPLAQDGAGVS

Structure (SMILES)	Ki [1]	Ki (value printed in the synthesis text as 'A2a=' without quantity name, read-out: A2a)
Nc1nc2c(F)cccc2c2nc(C(=O)NCc3cccc(Br)n3)cn12 [Ex-294, 5-amino-N-((6-bromopyridin-2-yl)methyl)-7-fluoroimidazo[1,2-c]quinazoline-2-carboxamide]	5.3 nM	–
Cc1cccc(CNC(=O)c2cn3c(N)nc4c(F)cccc4c3n2)n1 [Ex-295, 5-amino-7-fluoro-N-((6-methylpyridin-2-yl)methyl)imidazo[1,2-c]quinazoline-2-carboxamide]	6.2 nM	–
C[C@H](NC(=O)c1cn2c(N)nc3c(F)cccc3c2n1)c1ccccc1 [Ex-296, (S)-5-amino-7-fluoro-N-(1-phenylethyl)imidazo[1,2-c]quinazoline-2-carboxamide]	28 nM	–
C[C@@H](NC(=O)c1cn2c(N)nc3c(F)cccc3c2n1)c1ccccc1 [Ex-297, (R)-5-amino-7-fluoro-N-(1-phenylethyl)imidazo[1,2-c]quinazoline-2-carboxamide]	2.3 nM	–
Nc1nc2c(F)cccc2c2nc(C(=O)NCc3ccccn3)cn12 [Ex-298, 5-amino-7-fluoro-N-(pyridin-2-ylmethyl)imidazo[1,2-c]quinazoline-2-carboxamide]	14 nM	–
Nc1nc2c(F)cccc2c2nc(CC3CCN(c4ncc(F)cn4)CC3)cn12 [Ex-300, 7-fluoro-2-((1-(5-fluoropyrimidin-2-yl)piperidin-4-yl)methyl)imidazo[1,2-c]quinazolin-5-amine]	12 nM	–
Nc1nc2c(F)cccc2c2nc(CC3CCNCC3)cn12 [Ex-303, 7-fluoro-2-(piperidin-4-ylmethyl)imidazo-[1,2-c]quinazolin-5-amine]	170 nM	–
Nc1nc2c(F)cccc2c2nc(CC3CCN(Cc4ccccc4)CC3)cn12 [Ex-304, 2-((1-benzylpiperidin-4-yl)methyl)-7-fluoro-imidazo[1,2-c]quina-zolin-5-amine]	45 nM	–
Nc1nc2c(F)cccc2c2nc(CC3CCN(CC4CC4)CC3)cn12 [Ex-305, 2-((1-(cyclopropyl-methyl)piperidin-4-yl)methyl)-7-fluoro-imidazo[1,2-c]quina-zolin-5-amine]	220 nM	–
Nc1nc2c(F)cccc2c2nc(CC3CCN(Cc4cccs4)CC3)cn12 [Ex-306, 7-fluoro-2-((1-(thio-phen-2-ylmethyl)-piperidin-4-yl)methyl)-imidazo[1,2-c]quina-zolin-5-amine]	45 nM	–
CCN1CCC(Cc2cn3c(N)nc4c(F)cccc4c3n2)CC1 [Ex-307, 2-((1-ethyl-piperidin-4-yl)methyl)-7-fluoro-imidazo[1,2-c]quina-zolin-5-amine]	120 nM	–
Nc1nc2c(F)cccc2c2nc(CC3CCN(CCc4ccccc4)CC3)cn12 [Ex-308, 7-fluoro-2-((1-phen-ethylpiperidin-4-yl)-methyl)imidazo[1,2-c]quinazolin-5-amine]	300 nM	–
COc1ccc(CN2CCC(Cc3cn4c(N)nc5c(F)cccc5c4n3)CC2)cc1 [Ex-309, 7-fluoro-2-((1-(4-methoxybenzyl)-piperidin-4-yl)-methyl)imidazo-[1,2-c]quinazolin-5-amine]	150 nM	–
COc1cccc(CN2CCC(Cc3cn4c(N)nc5c(F)cccc5c4n3)CC2)c1 [Ex-310, 7-fluoro-2-((1-(3-methoxybenzyl)-piperidin-4-yl)-methyl)imidazo-[1,2-c]quinazolin-5-amine]	56 nM	–
COc1ccccc1CN1CCC(Cc2cn3c(N)nc4c(F)cccc4c3n2)CC1 [Ex-311, 7-fluoro-2-((1-(2-methoxybenzyl)-piperidin-4-yl)-methyl)imidazo-[1,2-c]quinazolin-5-amine]	94 nM	–
Cc1ccc(CN2CCC(Cc3cn4c(N)nc5c(F)cccc5c4n3)CC2)cc1 [Ex-312, 7-fluoro-2-((1-(4-methylbenzyl)piperi-din-4-yl)methyl)-imidazo-[1,2-c]-quinazolin-5-amine]	48 nM	–
Nc1nc2c(F)cccc2c2nc(CC3CCN(Cc4cccnc4)CC3)cn12 [Ex-313, 7-fluoro-2-((1-(pyridin-3-yl-methyl)piperidin-4-yl)methyl)imidazo-[1,2-c]quinazolin-5-amine]	310 nM	–
Nc1nc2c(F)cccc2c2nc(CC3CCN(C(=O)c4ccccc4)CC3)cn12 [Ex-315, (4-((5-amino-7-fluoro-imidazo[1,2-c]quina-zolin-2-yl)methyl)-piperidin-1-yl)-(phenyl)methanone]	82 nM	–
Nc1nc2c(F)cccc2c2nc(CC3CCN(C(=O)OCc4ccccc4)CC3)cn12 [Ex-316, benzyl 4-((5-amino-7-fluoroimidazo[1,2-c]quinazolin-2-yl)-methyl)piperidine-1-carboxylate]	30 nM	–
Nc1nc2c(F)cccc2c2nc(CC3CCN(C(=O)c4cccnc4)CC3)cn12 [Ex-317, (4-((5-amino-7-fluoroimidazo-[1,2-c]quinazolin-2-yl)methyl)piperidin-1-yl)(pyridin-3-yl)-methanone]	100 nM	–
Nc1nc2c(F)cccc2c2nc(CC3CCN(c4ccc(F)cn4)CC3)cn12 [Ex-319, 5-amino-7-fluoro-2-((1-(5-fluoropyridin-2-yl)piperidin-4-yl)-methyl)imidazo[1,2-c]quinazolin-6-ium 2,2,2-trifluoroacetate]	31 nM	–
COc1ccnc(C(=O)N2CCC(Cc3cn4c(N)nc5c(F)cccc5c4n3)CC2)c1 [Ex-320, (4-((5-amino-7-fluoroimidazo[1,2-c]quinazolin-2-yl)-methyl)piperidin-1-yl)(4-methoxypyridin-2-yl)methanone]	30 nM	–
Nc1nc2c(F)cccc2c2nc(CC3CCN(C(=O)c4cnccn4)CC3)cn12 [Ex-321, (4-((5-amino-7-fluoroimidazo[1,2-c]quinazolin-2-yl)-methyl)piperidin-1-yl)(pyrazin-2-yl)-methanone]	34 nM	–
Nc1nc2c(F)cccc2c2nc(CC3CCN(C(=O)c4cccc(Br)n4)CC3)cn12 [Ex-322, (4-((5-amino-7-fluoroimidazo[1,2-c]quinazolin-2-yl)-methyl)piperidin-1-yl)(6-bromopyridin-2-yl)methanone]	26 nM	–
Nc1nc2c(F)cccc2c2nc(CC3CCN(C(=O)c4ccc(F)cn4)CC3)cn12 [Ex-323, (4-((5-amino-7-fluoroimidazo[1,2-c]quinazolin-2-yl)-methyl)piperidin-1-yl)(5-fluoropyridin-2-yl)methanone]	17 nM	–
Cc1cccc(C(=O)N2CCC(Cc3cn4c(N)nc5c(F)cccc5c4n3)CC2)n1 [Ex-324, (4-((5-amino-7-fluoroimidazo[1,2-c]quinazolin-2-yl)-methyl)piperidin-1-yl)(6-methylpyridin-2-yl)methanone]	44 nM	–
COc1cccc(C(=O)N2CCC(Cc3cn4c(N)nc5c(F)cccc5c4n3)CC2)n1 [Ex-325, (4-((5-amino-7-fluoroimidazo[1,2-c]-quinazolin-2-yl)-methyl)piperidin-1-yl)(6-methoxypyridin-2-yl)methanone]	54 nM	–
Nc1nc2c(F)cccc2c2nc(CC3CCN(C(=O)c4ncccn4)CC3)cn12 [Ex-326, (4-((5-amino-7-fluoroimidazo[1,2-c]quinazolin-2-yl)-methyl)piperidin-1-yl)(pyrimidin-2-yl)-methanone]	47 nM	–
COc1ccc(C(=O)N2CCC(Cc3cn4c(N)nc5c(F)cccc5c4n3)CC2)nc1 [Ex-327, (4-((5-amino-7-fluoroimidazo[1,2-c]quinazolin-2-yl)-methyl)piperidin-1-yl)(5-methoxypyridin-2-yl)methanone]	21 nM	–
Nc1nc2c(F)cccc2c2nc(Cc3ccc4c(c3)CN(C(=O)c3ccccc3)C4)cn12 [L-005052550, (5-((5-amino-7-fluoroimidazo[1,2-c]quinazolin-2-yl)methyl)isoindolin-2-yl)(phenyl)methanone]	–	8.4 nM
